Source: patent US9738634B2, “Heterocyclic amide compound and herbicide” (SYNGENTA PARTICIPATIONS AG, priority 2013, dated 2017)

How the values were obtained:
Type in all cases: in vivo
barnyard grass [1] = assay: Test Example 1: weedkilling efficacy, preemergent weed treatment in the submerged state; A: barnyard grass; settings: treatment dosage 252 g/ha
How it was run: (§1)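 Visual scores against set criteria were taken 3 weeks after treatment. Compounds, as diluted emulsions at specified g/ha, went onto the water surface of 4 cm-flooded alluvial soil pots on the day weeds were sown and 2.5-leaf rice was transplanted; greenhouse held 25–30 °C.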

bulrush [2] = assay: Test Example 1: weedkilling efficacy, preemergent weed treatment in the submerged state; B: bulrush; settings: treatment dosage 252 g/ha
How it was run: as §1

oval-leafed pondweed [3] = assay: Test Example 1: weedkilling efficacy, preemergent weed treatment in the submerged state; C: oval-leafed pondweed; settings: treatment dosage 252 g/ha
How it was run: as §1

transplanted rice = assay: Test Example 1: preemergent weed treatment in the submerged state, effect on crop; a: transplanted rice; settings: treatment dosage 252 g/ha
How it was run: as §1

barnyard grass [4] = assay: Test Example 2: weedkilling efficacy, growth period weed treatment in the submerged state; A: barnyard grass; settings: treatment dosage 252 g/ha
How it was run: (§2)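 Barnyard grass, bulrush and oval-leafed pondweed sown in alluvial soil under 4 cm flooding, greenhouse 25 to 30° C. At 1-2 leaf stage, water-diluted emulsion applied to the water surface at stated g/ha dosages; effects scored 3 weeks later.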

bulrush [5] = assay: Test Example 2: weedkilling efficacy, growth period weed treatment in the submerged state; B: bulrush; settings: treatment dosage 252 g/ha
How it was run: as §2

oval-leafed pondweed [6] = assay: Test Example 2: weedkilling efficacy, growth period weed treatment in the submerged state; C: oval-leafed pondweed; settings: treatment dosage 252 g/ha
How it was run: as §2

crabgrass [7] = assay: Test Example 3: weedkilling efficacy through soil treatment; D: crabgrass; settings: treatment dosage 315 g/ha
How it was run: (§3)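 Crop and weed responses were judged three weeks after a uniform surface spray of the water-diluted emulsion at the given g/ha rate. Seeds sat beneath about 1.5 cm of sterilized diluvial soil, and boxes stood in a greenhouse at 25 to 30° C.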

green foxtail [8] = assay: Test Example 3: weedkilling efficacy through soil treatment; E: green foxtail; settings: treatment dosage 315 g/ha
How it was run: as §3

wild oat [9] = assay: Test Example 3: weedkilling efficacy through soil treatment; G: wild oat; settings: treatment dosage 315 g/ha
How it was run: as §3

black-grass [10] = assay: Test Example 3: weedkilling efficacy through soil treatment; H: black-grass; settings: treatment dosage 315 g/ha
How it was run: as §3

Italian ryegrass [11] = assay: Test Example 3: weedkilling efficacy through soil treatment; I: Italian ryegrass; settings: treatment dosage 315 g/ha
How it was run: as §3

Indian mallow [12] = assay: Test Example 3: weedkilling efficacy through soil treatment; K: Indian mallow; settings: treatment dosage 315 g/ha
How it was run: as §3

redroot pigweed [13] = assay: Test Example 3: weedkilling efficacy through soil treatment; L: redroot pigweed; settings: treatment dosage 315 g/ha
How it was run: as §3

fig-leafed goosefoot [14] = assay: Test Example 3: weedkilling efficacy through soil treatment; M: fig-leafed goosefoot; settings: treatment dosage 315 g/ha
How it was run: as §3

chickweed [15] = assay: Test Example 3: weedkilling efficacy through soil treatment; N: chickweed; settings: treatment dosage 315 g/ha
How it was run: as §3

catchweed [16] = assay: Test Example 3: weedkilling efficacy through soil treatment; O: catchweed; settings: treatment dosage 315 g/ha
How it was run: as §3

birds-eye speedwell = assay: Test Example 3: weedkilling efficacy through soil treatment; p: birds-eye speedwell; settings: treatment dosage 315 g/ha
How it was run: as §3

directly sown rice [17] = assay: Test Example 3: soil treatment, effect on crop; b: directly sown rice; settings: treatment dosage 315 g/ha
How it was run: as §3

corn [18] = assay: Test Example 3: soil treatment, effect on crop; c: corn; settings: treatment dosage 315 g/ha
How it was run: as §3

soybean [19] = assay: Test Example 3: soil treatment, effect on crop; d: soybean; settings: treatment dosage 315 g/ha
How it was run: as §3

wheat [20] = assay: Test Example 3: soil treatment, effect on crop; e: wheat; settings: treatment dosage 315 g/ha
How it was run: as §3

crabgrass [21] = assay: Test Example 4: weedkilling efficacy by foliar treatment; D: crabgrass; settings: treatment dosage 315 g/ha
How it was run: (§4)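 Seeds are spot-sown into sterilized diluvial soil and covered with about 1.5 cm of soil. After 14 days' greenhouse growth at 25 to 30° C, plants are sprayed on stems and leaves with diluted emulsion at the stated g/ha rate, then scored at 3 weeks.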

green foxtail [22] = assay: Test Example 4: weedkilling efficacy by foliar treatment; E: green foxtail; settings: treatment dosage 315 g/ha
How it was run: as §4

wild oat [23] = assay: Test Example 4: weedkilling efficacy by foliar treatment; G: wild oat; settings: treatment dosage 315 g/ha
Method: Testing of Weedkilling Efficacy by Foliar Treatment
Sterilized diluvial soil was introduced into 21 cm long, 13 cm wide, 7 cm deep plastic boxes, and seeds of crabgrass, green foxtail, barnyard grass, wild oat, black-grass, Italian ryegrass, common wind-grass, Indian mallow, redroot pigweed, fig-leafed goosefoot, chickweed, catchweed, birds-eye speedwell, corn, soybean, rice, wheat, beet and rapeseed were each spot-sown, and covered with about 1.5 cm of soil, then the plants were grown in a greenhouse at 25 to 30° C.
After they had grown for 14 days, emulsions of compounds of the present invention prepared according to compounding example 2 were diluted with water to give the specified dosages, and applied uniformly onto the stem and leaf parts with a small sprayer. 3 weeks after the pesticide treatment the effect on each type of plant was investigated on the basis of the assessment criteria of test example 1.
A: barnyard grass, B: bulrush, C: oval-leafed pondweed, D: crabgrass, E: green foxtail, F: barnyard grass, G: wild oat, H: black-grass, I: Italian ryegrass, J: common wind-grass, K: Indian mallow, L: redroot pigweed, M: fig-leafed goosefoot, N: chickweed, O: catchweed, p: birds-eye speedwell, a: transplanted rice, b: directly sown rice, c: corn, d: soybean, e: wheat, f: beet, g: rapeseed
Further, pesticide dosage (g/ha) indicates the concentration regulated such that treatment was with only the stated number of grams (g), when calculated per hectare (ha).

black-grass [24] = assay: Test Example 4: weedkilling efficacy by foliar treatment; H: black-grass; settings: treatment dosage 315 g/ha
How it was run: as §4

Italian ryegrass [25] = assay: Test Example 4: weedkilling efficacy by foliar treatment; I: Italian ryegrass; settings: treatment dosage 315 g/ha
How it was run: as §4

Indian mallow [26] = assay: Test Example 4: weedkilling efficacy by foliar treatment; K: Indian mallow; settings: treatment dosage 315 g/ha
How it was run: as §4

redroot pigweed [27] = assay: Test Example 4: weedkilling efficacy by foliar treatment; L: redroot pigweed; settings: treatment dosage 315 g/ha
How it was run: as §4

fig-leafed goosefoot [28] = assay: Test Example 4: weedkilling efficacy by foliar treatment; M: fig-leafed goosefoot; settings: treatment dosage 315 g/ha
How it was run: as §4

chickweed [29] = assay: Test Example 4: weedkilling efficacy by foliar treatment; N: chickweed; settings: treatment dosage 315 g/ha
How it was run: as §4

catchweed [30] = assay: Test Example 4: weedkilling efficacy by foliar treatment; O: catchweed; settings: treatment dosage 315 g/ha
How it was run: as §4

directly sown rice [31] = assay: Test Example 4: foliar treatment, effect on crop; b: directly sown rice; settings: treatment dosage 315 g/ha
How it was run: as §4

corn [32] = assay: Test Example 4: foliar treatment, effect on crop; c: corn; settings: treatment dosage 315 g/ha
How it was run: as §4

soybean [33] = assay: Test Example 4: foliar treatment, effect on crop; d: soybean; settings: treatment dosage 315 g/ha
How it was run: as §4

wheat [34] = assay: Test Example 4: foliar treatment, effect on crop; e: wheat; settings: treatment dosage 315 g/ha
How it was run: as §4

beet = assay: Test Example 4: foliar treatment, effect on crop; f: beet; settings: treatment dosage 315 g/ha
How it was run: as §4

Q: Which results are given for `CC1=C(c2ccccc2)C(=O)N(C(C)(C)C(=O)Nc2cccc(C(F)(F)F)n2)CO1` [B-2-58]?
A: A (barnyard grass) weedkilling efficacy grade (barnyard grass [1]): 5 (weed kill ratio 90% or more, (practically complete withering)); B (bulrush) weedkilling efficacy grade (bulrush [2]): 5 (weed kill ratio 90% or more, (practically complete withering)); C (oval-leafed pondweed) weedkilling efficacy grade (oval-leafed pondweed [3]): 5 (weed kill ratio 90% or more, (practically complete withering)); a (transplanted rice) effect on crop grade (transplanted rice): 0 (weed kill ratio 5% or less (practically no effect)); A (barnyard grass) weedkilling efficacy grade (barnyard grass [4]): 3 (weed kill ratio 40% or more, less than 70%); B (bulrush) weedkilling efficacy grade (bulrush [5]): 5 (weed kill ratio 90% or more, (practically complete withering)); C (oval-leafed pondweed) weedkilling efficacy grade (oval-leafed pondweed [6]): 4 (weed kill ratio 70% or more, less than 90%); D (crabgrass) weedkilling efficacy grade (crabgrass [7]): 5 (weed kill ratio 90% or more, (practically complete withering)); E (green foxtail) weedkilling efficacy grade (green foxtail [8]): 5 (weed kill ratio 90% or more, (practically complete withering)); G (wild oat) weedkilling efficacy grade (wild oat [9]): 3 (weed kill ratio 40% or more, less than 70%); H (black-grass) weedkilling efficacy grade (black-grass [10]): 4 (weed kill ratio 70% or more, less than 90%); I (Italian ryegrass) weedkilling efficacy grade (Italian ryegrass [11]): 5 (weed kill ratio 90% or more, (practically complete withering)); K (Indian mallow) weedkilling efficacy grade (Indian mallow [12]): 1 (weed kill ratio 5% or more, less than 20%); L (redroot pigweed) weedkilling efficacy grade (redroot pigweed [13]): 3 (weed kill ratio 40% or more, less than 70%); M (fig-leafed goosefoot) weedkilling efficacy grade (fig-leafed goosefoot [14]): 4 (weed kill ratio 70% or more, less than 90%); N (chickweed) weedkilling efficacy grade (chickweed [15]): 4 (weed kill ratio 70% or more, less than 90%); O (catchweed) weedkilling efficacy grade (catchweed [16]): 0 (weed kill ratio 5% or less (practically no effect)); P (birds-eye speedwell) weedkilling efficacy grade (birds-eye speedwell): 5 (weed kill ratio 90% or more, (practically complete withering)); b (directly sown rice) effect on crop grade (directly sown rice [17]): 3 (weed kill ratio 40% or more, less than 70%); c (corn) effect on crop grade (corn [18]): 1 (weed kill ratio 5% or more, less than 20%); d (soybean) effect on crop grade (soybean [19]): 0 (weed kill ratio 5% or less (practically no effect)); e (wheat) effect on crop grade (wheat [20]): 0 (weed kill ratio 5% or less (practically no effect)); D (crabgrass) weedkilling efficacy grade (crabgrass [21]): 5 (weed kill ratio 90% or more, (practically complete withering)); E (green foxtail) weedkilling efficacy grade (green foxtail [22]): 5 (weed kill ratio 90% or more, (practically complete withering)); G (wild oat) weedkilling efficacy grade (wild oat [23]): 3 (weed kill ratio 40% or more, less than 70%); H (black-grass) weedkilling efficacy grade (black-grass [24]): 5 (weed kill ratio 90% or more, (practically complete withering)); I (Italian ryegrass) weedkilling efficacy grade (Italian ryegrass [25]): 5 (weed kill ratio 90% or more, (practically complete withering)); K (Indian mallow) weedkilling efficacy grade (Indian mallow [26]): 3 (weed kill ratio 40% or more, less than 70%); L (redroot pigweed) weedkilling efficacy grade (redroot pigweed [27]): 3 (weed kill ratio 40% or more, less than 70%); M (fig-leafed goosefoot) weedkilling efficacy grade (fig-leafed goosefoot [28]): 3 (weed kill ratio 40% or more, less than 70%); N (chickweed) weedkilling efficacy grade (chickweed [29]): 3 (weed kill ratio 40% or more, less than 70%); O (catchweed) weedkilling efficacy grade (catchweed [30]): 1 (weed kill ratio 5% or more, less than 20%); b (directly sown rice) effect on crop grade (directly sown rice [31]): 4 (weed kill ratio 70% or more, less than 90%); c (corn) effect on crop grade (corn [32]): 3 (weed kill ratio 40% or more, less than 70%); d (soybean) effect on crop grade (soybean [33]): 3 (weed kill ratio 40% or more, less than 70%); e (wheat) effect on crop grade (wheat [34]): 1 (weed kill ratio 5% or more, less than 20%); f (beet) effect on crop grade (beet): 4 (weed kill ratio 70% or more, less than 90%)
